The series is described as follows: logP(HCOOH) by HPLC. It counts as physicochemical.
Where [1] appears, read: HPLC on reversed phase columns, pH 2.7, 0.1% formic acid in water / acetonitrile, linear gradient 10% to 95% acetonitrile, EEC directive 79/831 Annex V.A8.
Setting [2] is: HPLC on reversed phase columns, pH 2.7, 0.1% formic acid in water / acetonitrile gradient.

Like-named read-outs stand apart in the source and are kept apart here.

Turning to `C=C=CCCC(=O)Nc1nc(CON=C(c2ccccc2)n2nnnc2C)cs1` [compound 139], the log p under setting [1] was found to be 3.09.

Under setting [1], `Cn1nnnc1C(=NOCc1cccc(NC(=O)OCC2CCC2)n1)c1ccccc1` [compound 163] came in with a log p of 3.92. Take `CON=C(C(=O)Nc1cccc(CON=C(c2ccccc2)n2nnnc2C)n1)c1ccc(C)cc1` [compound 134]: under setting [1], the log p is on record as 4.44. Under setting [1], `Cn1nnnc1/C(=N\OCc1cccc(NC(=O)OCC2CC2)n1)c1ccccc1` [Example 58] showed a log p of 3.46. With `Cn1nnnc1C(=NOCc1csc(NC(=O)CC[Si](C)(C)C)n1)c1ccccc1` [compound 227], the log p under setting [2] is 4.01. With `CCON=C(C(=O)Nc1nc(CON=C(c2ccccc2)n2nnnc2C)cs1)c1ccc(C)cc1` [compound 127], the log p under setting [1] is recorded as 4.49. `Cc1nnnn1C(=NOCc1csc(NC(=O)OCCCC2CCCCC2)n1)c1ccccc1` [Example 67] yielded a log p under setting [1] of 5.11. Turning to `CC(C)=NOC(C)C(=O)Nc1cccc(CON=C(c2ccccc2)n2nnnc2C)n1` (stereo not drawn) [compound 203], the log p under setting [2] came to 3.35. `CC1=C(CC(C)OC(=O)Nc2nc(CON=C(c3ccccc3)n3nnnc3C)cs2)C1(C)C` (stereo not drawn) [compound 207]: under setting [2], the log p was found to be 4.86.

Under setting [1], `CCC(OC1CCCC1)C(=O)Nc1cccc(CON=C(c2ccccc2)n2nnnc2C)n1` (stereo not drawn) [compound 188] registered a log p of 4.65. Under setting [1], `Cn1nnnc1C(=NOCc1cccc(NC(=O)OCCCC2CC2)n1)c1ccccc1` [Example 72] registered a log p of 4.15. Turning to `CC(OC1CCCCC1)C(=O)Nc1ccc(Br)c(CON=C(c2ccccc2)c2nnnn2C)n1` (stereo not drawn) [compound 181], the log p under setting [1] amounted to 5.11.

On to `CCC(OC1CCCCC1)C(=O)Nc1nc(CON=C(c2ccccc2)c2nnnn2C)cs1` (stereo not drawn) [compound 173], for which the log p under setting [1] amounted to 4.42.

`Cn1nnnc1C(=NOCc1csc(NC(=O)OCCCC2CC2)n1)c1ccccc1` [Example 76] registered a log p under setting [1] of 3.85. On the same count and under the same terms, the value for `Cn1nnnc1C(=NOCc1cccc(NC(=O)OCCCC2CCCC2)n1)c1ccccc1` [Example 69] was 5.06; that for `Cn1nnnc1C(=NOCc1cccc(NC(=O)OCCCC2CCCCC2)n1)c1ccccc1` [Example 71] was 5.45.

On to `CC1=C(CC(C)OCC(=O)Nc2cccc(CON=C(c3ccccc3)c3nnnn3C)n2)C1(C)C` (stereo not drawn) [compound 224], for which the log p under setting [2] is reported as 5.14. On to `Cc1nnnn1C(=NOCc1csc(NC(=O)CC=COc2ccccc2)n1)c1ccccc1` [compound 217], for which the log p under setting [2] amounted to 3.61. Turning to `CON=C(C(=O)Nc1nc(CON=C(c2ccccc2)n2nnnc2C)cs1)c1ccc(C)cc1` [compound 124], under setting [1], the log p is listed as 4.13. Still for that read-out and setting: to `C#CCOC(CC)C(=O)Nc1cccc(CON=C(c2ccccc2)n2nnnc2C)n1` (stereo not drawn) [compound 119] belongs 3.33.

For the compound `Cn1nnnc1/C(=N\OCc1cccc(NC(=O)OCC2CCCCC2)n1)c1ccccc1` [Example 57], the log p under setting [1] is given as 4.72.

Consider `CON=C(C(=O)Nc1nc(CON=C(c2ccccc2)c2nnnn2C)cs1)c1ccc(C)cc1` [compound 130], for which the log p under setting [1] is 3.79. Under setting [2], `Cn1nnnc1C(=NOCc1csc(NC(=O)OC2CCc3ccccc3C2)n1)c1ccccc1` (stereo not drawn) [compound 211] displayed a log p of 4.14.

Turning to `Cc1nnnn1C(=NOCc1cccc(NC(=O)OC(C)C2CCCCC2)n1)c1ccccc1` (stereo not drawn) [compound 157], under setting [1], the log p is listed as 5.08. `CCC(OC1CCCCCC1)C(=O)Nc1cccc(CON=C(c2ccccc2)c2nnnn2C)n1` (stereo not drawn) [compound 195] displayed a log p under setting [2] of 5.27. As to `CCON=C(C(=O)Nc1nc(CON=C(c2ccccc2)n2nnnc2C)cs1)c1ccc(Cl)cc1` [compound 123], under setting [1], the log p stood at 4.61. `CCC(OC1CCCC1)C(=O)Nc1cccc(CON=C(c2ccccc2)c2nnnn2C)n1` (stereo not drawn) [compound 196] yielded a log p under setting [2] of 4.51. `CC(OC1CCC1)C(=O)Nc1nc(CON=C(c2ccccc2)c2nnnn2C)cs1` (stereo not drawn) [compound 172]: the log p under setting [1] came to 3.39. As for `CC(=NOCC(=O)Nc1cccc(CON=C(c2ccccc2)n2nnnc2C)n1)c1ccccc1` [compound 202], the log p under setting [2] is 3.94. Under setting [2], `CC1=C(CC(C)OCC(=O)Nc2nc(CON=C(c3ccccc3)n3nnnc3C)cs2)C1(C)C` (stereo not drawn) [compound 216] showed a log p of 4.91. The same measure, in the same setting: the value for `CC1CCCC(OC(C)C(=O)Nc2cccc(CON=C(c3ccccc3)c3nnnn3C)n2)C1` (stereo not drawn) [compound 197] was 4.81. In turn, `CC(OC1CCCCC1)C(=O)Nc1cccc(CON=C(c2ccccc2)c2nnnn2C2CC2)n1` (stereo not drawn) [compound 180] came in with a log p under setting [1] of 4.93. The compound `C#CCOC(C(=O)Nc1nc(CON=C(c2ccccc2)n2nnnc2C)cs1)C(C)C` (stereo not drawn) [compound 114] showed a log p under setting [1] of 3.46. On the same count and under the same terms, the value for `CON=C(C(=O)Nc1cccc(CON=C(c2ccccc2)c2nnnn2C)n1)c1ccc(C)cc1` [compound 138] was 4.27; that for `CCC(OC1CCC1)C(=O)Nc1cccc(CON=C(c2ccccc2)n2nnnc2C)n1` (stereo not drawn) [compound 187] was 4.2; that for `Cn1nnnc1C(=NOCc1csc(NC(=O)OCCCC2CCCCC2)n1)c1ccccc1` [Example 75] was 5.03. Same read-out and setting: the value for `CC(OC1CCCCC1)C(=O)Nc1nc(CON=C(c2ccccc2)c2nnnn2C2CC2)cs1` (stereo not drawn) [compound 164] was 4.53. Take `Cn1nnnc1C(=NOCc1csc(NC(=O)OCC2CCCC2)n1)c1ccccc1` [Example 74]: under setting [1], the log p turned out to be 3.92. Still for that read-out and setting: the value for `Cn1nnnc1/C(=N\OCc1cccc(NC(=O)OC2CC3CCC2(C)C3(C)C)n1)c1ccccc1` (stereo not drawn) [Example 55] was 5.32; that for `CCC(OC1CCC1)C(=O)Nc1nc(CON=C(c2ccccc2)c2nnnn2C)cs1` (stereo not drawn) [compound 174] was 3.76. Consider `CC1=C(CC(C)OCC(=O)Nc2cccc(CON=C(c3ccccc3)c3nnnn3C)n2)C1` (stereo not drawn) [compound 223], for which the log p under setting [2] came out at 4.3. `Cc1nnnn1C(=NOCc1csc(NC(=O)C(C)OC2CCC(C)CC2)n1)c1ccccc1` (stereo not drawn) [compound 171] came in with a log p under setting [1] of 4.53. Still for that read-out and setting: to `CC(=NOCC(=O)Nc1cccc(CON=C(c2ccccc2)c2nnnn2C)n1)C(C)(C)C` [Example 31] belongs 4.23. As to `CC(CC1CC1)OC(=O)Nc1cccc(CO/N=C(/c2ccccc2)c2nnnn2C)n1` (stereo not drawn) [Example 60, 1-cyclopropylpropan-2-yl {6-[({[(Z)-(1-methyl-1H-tetrazol-5-yl)(phenyl)methylene]amino}oxy)methyl]pyridin-2-yl}carbamate], the chromatographic logP came to 4.15 (reversed phase HPLC column, HPLC on reversed phase columns, pH 2.7, 0.1% formic acid in water / acetonitrile, linear gradient 10% to 95% acetonitrile, EEC directive 79/831 Annex V.A8, read-out: log p) and 4.15 (reversed phase HPLC columns, pH 2.7, HCOOH, read-out: logP(HCOOH)). Under setting [1], `CC(OC1CCC1)C(=O)Nc1cccc(CON=C(c2ccccc2)c2nnnn2C)n1` (stereo not drawn) [compound 192] came in with a log p of 3.7. On the same count and under the same terms, the value for `C=C(C)C(C)=CCC(C)OCC(=O)Nc1nc(CON=C(c2ccccc2)n2nnnc2C)cs1` (stereo not drawn) [compound 110] was 4.56; that for `Cn1nnnc1C(=NOCc1csc(NC(=O)OCCC2CC2)n1)c1ccccc1` [compound 149] was 3.46; that for `CCC(OC1CCCCCC1)C(=O)Nc1nc(CON=C(c2ccccc2)c2nnnn2C)cs1` (stereo not drawn) [compound 176] was 4.87. `CC(OC(=O)Nc1nc(CON=C(c2ccccc2)c2nnnn2C)cs1)C1CCCC1` (stereo not drawn) [compound 152] returned a log p under setting [1] of 4.25.

Under setting [1], `Cn1nnnc1C(=NOCc1cccc(NC(=O)OCCC2CCCC2)n1)c1ccccc1` [compound 160] gave a log p of 4.61.

Consider `CC1=C(CC(C)OCC(=O)Nc2cccc(CON=C(c3ccccc3)n3nnnc3C)n2)C1(C)C` (stereo not drawn) [compound 222], for which the log p under setting [2] is 5.42. Turning to `C#CCOC(C(=O)Nc1cccc(CON=C(c2ccccc2)c2nnnn2C)n1)C(C)C` (stereo not drawn) [compound 122], the log p under setting [1] is 3.63. Same read-out and setting: to `C=C(C)C(C)=CCC(C)OCC(=O)Nc1cccc(CON=C(c2ccccc2)c2nnnn2C)n1` (stereo not drawn) [compound 113] belongs 4.73; to `Cc1nnnn1C(=NOCc1csc(NC(=O)C(C)OC2CCCC(C)C2)n1)c1ccccc1` (stereo not drawn) [compound 170], 4.53; to `CON=C(C(=O)Nc1nc(CON=C(c2ccccc2)n2nnnc2C)cs1)c1cccc(Cl)c1Cl` [Example 30], 4.32. Same read-out and setting: the value for `CCC(OC1CCCCCC1)C(=O)Nc1cccc(CON=C(c2ccccc2)n2nnnc2C)n1` (stereo not drawn) [compound 189] was 5.41. For `CC(C)=NOCCOC(=O)Nc1cccc(CON=C(c2ccccc2)c2nnnn2C)n1` [compound 213], the log p under setting [2] came to 3.11. The compound `C#CCOCC(=O)Nc1nc(CO/N=C(/c2ccccc2)n2nnnc2C)cs1` [Example 49] displayed a log p under setting [1] of 2.69.

With `CCC(OC1CCCCC1)C(=O)Nc1cccc(CON=C(c2ccccc2)c2nnnn2C)n1` (stereo not drawn) [compound 193], under setting [2], the log p was 4.88. Take `Cn1nnnc1C(=NOCc1csc(NC(=O)C(OC2CCCCC2)c2ccccc2)n1)c1ccccc1` (stereo not drawn) [compound 179]: the log p under setting [1] worked out at 4.82. As to `Cn1nnnc1C(=NOCc1csc(NC(=O)CC=COc2ccccc2)n1)c1ccccc1` [compound 220], under setting [2], the log p was 3.57. `CC(OC1CCCCCC1)C(=O)Nc1cccc(CON=C(c2ccccc2)c2nnnn2C)n1` (stereo not drawn) [Example 100] returned a log p under setting [1] of 4.8. On the same count and under the same terms, the value for `C=CCCCOCC(=O)Nc1nc(CON=C(c2ccccc2)n2nnnc2C)cs1` [compound 111] was 3.55.

`CC1=C(CC(C)OCC(=O)Nc2cccc(CON=C(c3ccccc3)n3nnnc3C)n2)C1` (stereo not drawn) [compound 221] displayed a log p under setting [2] of 4.37. Compound `C#CCOC(CC)C(=O)Nc1cccc(CON=C(c2ccccc2)c2nnnn2C)n1` (stereo not drawn) [compound 121] yielded a log p under setting [1] of 3.27. For the compound `CC1CCCC(OC(C)C(=O)Nc2nc(CON=C(c3ccccc3)c3nnnn3C)cs2)C1` (stereo not drawn) [compound 177], the log p under setting [1] was found to be 4.44. Still for that read-out and setting: to `CC1CCC(OC(C)C(=O)Nc2nc(CON=C(c3ccccc3)c3nnnn3C)cs2)CC1` (stereo not drawn) [compound 178] belongs 4.44. Under setting [1], `Cn1nnnc1/C(=N\OCc1cccc(NC(=O)OCCC2CCCCC2)n1)c1ccccc1` [Example 59] had a log p of 5.11.

Source of the values: patent publication US20130012546A1 (priority 2009, published 2013).
